Reference: PMC7175153, “Testing the Pharmacokinetic Interactions of 24 Colonic Flavonoid Metabolites with Human Serum Albumin and Cytochrome P450 Enzymes” (Biomolecules, 2020)
Like-named read-outs stand apart in the source and are kept apart here.

Tests used:
HSA = details: cited from earlier work
[1] = design: method as in PMID 25168218; details: rat plasma, after Decalepis arayalpathra tuber extract; cited from earlier work
CYP2C19 [2] = biological target: T1, CYP2C19 (Homo sapiens, UniProt P33261); assay: CYP2C19-catalyzed S-mephenytoin hydroxylation (CypExpress 2C19 kit); format: in vitro ADME; details: CypExpress 2C19 kit (recombinant CYP2C19), probe S-mephenytoin, metabolite 20 μM, S-mephenytoin 5 μM
T1 construct: purchased Sigma-Aldrich
T1 sequence (P33261 whole entry): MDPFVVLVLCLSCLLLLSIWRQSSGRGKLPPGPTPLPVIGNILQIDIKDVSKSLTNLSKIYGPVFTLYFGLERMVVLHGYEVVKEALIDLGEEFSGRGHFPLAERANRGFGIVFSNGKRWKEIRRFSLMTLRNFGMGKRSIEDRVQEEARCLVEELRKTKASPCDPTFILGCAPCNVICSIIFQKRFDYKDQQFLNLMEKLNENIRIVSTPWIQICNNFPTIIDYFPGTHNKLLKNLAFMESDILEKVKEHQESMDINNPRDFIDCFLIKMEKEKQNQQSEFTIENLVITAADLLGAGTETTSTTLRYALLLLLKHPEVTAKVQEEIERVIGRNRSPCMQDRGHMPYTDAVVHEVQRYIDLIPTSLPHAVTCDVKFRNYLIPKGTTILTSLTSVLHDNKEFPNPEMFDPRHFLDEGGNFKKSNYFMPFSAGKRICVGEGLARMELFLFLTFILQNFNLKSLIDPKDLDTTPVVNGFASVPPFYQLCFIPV
Text: Effects of microbial metabolites on CYP2C19 enzyme were examined based on their impact on CYP2C19-catalyzed 4-hydroxymephenytoin formation, employing the previously reported method without modifications.
(§1) S-mephenytoin and 4-hydroxymephenytoin (CYP2C19 assay) as well as testosterone and 6β-hydroxytestosterone (CYP3A4 assay) were quantified by HPLC-UV employing the previously described methods without modifications.

[3] = biological target: T2, human serum albumin (HSA) (Homo sapiens, UniProt P02768); assay: HSA-ligand interaction by fluorescence spectroscopy (quenching, Stern-Volmer and Hyperquad fitting); format: binding; details: for Kd: decimal log ±SEM of K in L/mol, Hyperquad non-linear fitting, PBS pH 7.4; for Effect on HSA fluorescence signal at 340 nm / LogKSV (Stern-Volmer quenching constant): HSA 2 μM; for Effect on HSA fluorescence signal at 340 nm: metabolite 0-8 μM, λex 295 nm; for LogKSV (Stern-Volmer quenching constant): decimal log ±SEM of KSV in L/mol, PBS pH 7.4, λex 295 nm, λem 340 nm
T2 construct: purchased Sigma-Aldrich
T2 sequence (P02768 25-609): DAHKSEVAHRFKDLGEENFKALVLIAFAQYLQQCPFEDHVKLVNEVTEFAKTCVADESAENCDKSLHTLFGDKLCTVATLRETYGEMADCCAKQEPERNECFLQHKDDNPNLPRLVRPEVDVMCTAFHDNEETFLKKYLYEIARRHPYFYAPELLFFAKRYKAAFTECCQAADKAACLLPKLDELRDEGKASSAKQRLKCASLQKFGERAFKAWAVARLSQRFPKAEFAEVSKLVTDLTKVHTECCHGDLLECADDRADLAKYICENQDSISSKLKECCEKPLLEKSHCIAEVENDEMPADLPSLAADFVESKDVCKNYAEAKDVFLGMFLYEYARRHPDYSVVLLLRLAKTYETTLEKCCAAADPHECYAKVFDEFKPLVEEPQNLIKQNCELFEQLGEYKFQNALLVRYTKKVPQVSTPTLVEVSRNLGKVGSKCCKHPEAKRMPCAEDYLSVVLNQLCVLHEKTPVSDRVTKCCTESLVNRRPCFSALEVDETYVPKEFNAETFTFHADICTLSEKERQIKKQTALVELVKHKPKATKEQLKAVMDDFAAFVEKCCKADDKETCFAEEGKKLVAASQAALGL
Method: Albumin-ligand interactions were investigated employing a Hitachi F-4500 fluorimeter (Tokyo, Japan), measurements were performed in phosphate-buffered saline (PBS, pH 7.4), in the presence of air at room temperature. Absorption spectra of the flavonoid metabolites were also recorded in PBS, applying a HALO DB-20 UV-Vis spectrophotometer (Dynamica, London, UK). Because the inner filter effect can decrease the fluorescence emission signal of albumin, fluorescence spectra were corrected using the following equation [29, 30]:Icor = Iobs × e^(Aex^+ Aem^)/2(1) where Icor means the corrected and Iobs denotes the observed emission intensities at the wavelengths used, while Aex and Aem are the absorbance values of flavonoid metabolites at the excitation and emission wavelengths applied, respectively.
HSA-ligand interactions were evaluated using fluorescence quenching studies or the intrinsic fluoresce of the metabolite (if it strongly interfered with the emission signal of albumin). In quenching studies, the emission spectrum of HSA (2 μM) was recorded in the presence of increasing concentrations of microbial metabolites (0, 2, 3, 4, 5, 6, and 8 μM), using a 295 nm excitation wavelength. Data were evaluated based on linear and non-linear fitting, employing the Stern-Volmer equation (Equation (2)) and the Hyperquad2006 program package (Protonic Software; Leeds, UK), respectively. The Stern-Volmer equation was described as I0/I = 1 + KSV × [Q](2) where I0 and I denote the fluorescence emission intensities (λex = 295 nm, λem = 340 nm) of HSA in the absence and presence of colonic metabolites, respectively. Furthermore, KSV (unit: L/mol) and [Q] (unit: mol/L) are the Stern-Volmer quenching constant and the concentration of the quencher, respectively.
The fluorescence emission spectrum of 2H4MBA (2 μM) was recorded with HSA (0, 0.5, 1, 2, 3, 4 and 5 μM), using 295 nm excitation wavelength (the excitation maximum of 2H4MBA). The binding constants (K; unit: L/mol) of albumin-ligand complexes were determined by non-linear fitting using the Hyperquad2006 program, as has been reported. During this evaluation, absorbance values and fluorescence signals of both HSA and 2H4MBA were taken into account.

HSA Site II (naproxen) = biological target: T3, HSA Site II (naproxen) (Homo sapiens, UniProt P02768); assay: Displacement of Site II marker naproxen from HSA by ultrafiltration; format: binding; details: naproxen 1 μM, HSA 1.5 μM, metabolite 20 μM
T3 construct: purchased Sigma-Aldrich
T3 sequence (P02768 25-609): as above
Text: (§2) Then the concentrations of site markers in the filtrates were quantified by HPLC (see in 2.5).

[4] = cited from earlier work
bovine serum albumin = details: cited from earlier work
CYP3A4 [5] = details: cited from earlier work
CYP2C19 [6] = test system: CYP2C19; design: method as in PMID 24254844; details: cited from earlier work
CYP2C9 [7] = details: cited from earlier work
CYP3A4 [8] = biological target: T4, CYP3A4 (Homo sapiens, UniProt P08684); assay: CYP3A4-catalyzed testosterone hydroxylation (CypExpress 3A4 kit); format: in vitro ADME; details: CypExpress 3A4 kit (recombinant CYP3A4), probe testosterone, metabolite 20 μM, testosterone 5 μM, read-out: Inhibition of CYP3A4 (decrease in metabolite formation)
T4 construct: purchased Sigma-Aldrich
T4 sequence (P08684 whole entry): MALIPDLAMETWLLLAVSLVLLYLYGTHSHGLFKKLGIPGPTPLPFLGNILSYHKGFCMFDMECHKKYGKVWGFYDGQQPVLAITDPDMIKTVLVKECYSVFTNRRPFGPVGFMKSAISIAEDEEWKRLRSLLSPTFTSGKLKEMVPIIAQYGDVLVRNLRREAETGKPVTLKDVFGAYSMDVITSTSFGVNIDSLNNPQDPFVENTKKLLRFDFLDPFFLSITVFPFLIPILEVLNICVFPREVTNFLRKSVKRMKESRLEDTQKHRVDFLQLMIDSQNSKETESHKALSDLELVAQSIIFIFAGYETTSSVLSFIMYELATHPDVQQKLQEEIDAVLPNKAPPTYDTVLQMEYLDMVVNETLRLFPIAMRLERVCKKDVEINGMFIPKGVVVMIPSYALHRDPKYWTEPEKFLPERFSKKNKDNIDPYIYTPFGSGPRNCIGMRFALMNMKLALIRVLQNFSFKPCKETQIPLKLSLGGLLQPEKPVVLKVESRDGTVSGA
Method: Inhibitory action of flavonoid metabolites on CYP3A4 enzyme was tested based on their effects on CYP3A4-catalyzed testosterone hydroxylation, using the previously described method without modifications.
as §1

HSA Site I (warfarin) = biological target: T5, HSA Site I (warfarin) (Homo sapiens, UniProt P02768); assay: Displacement of Site I marker warfarin from HSA by ultrafiltration; format: binding; details: warfarin 1 μM, HSA 5 μM, metabolite 20 μM
T5 construct: purchased Sigma-Aldrich
T5 sequence (P02768 25-609): as the sequence (P02768 25-609) above
Text: as §2

CYP2C9 [9] = biological target: CYP2C9 (Homo sapiens, UniProt P11712); assay: CYP2C9-catalyzed diclofenac hydroxylation (CypExpress 2C9 kit)
Sequence of CYP2C9 (Homo sapiens, UniProt P11712) (P11712 whole entry): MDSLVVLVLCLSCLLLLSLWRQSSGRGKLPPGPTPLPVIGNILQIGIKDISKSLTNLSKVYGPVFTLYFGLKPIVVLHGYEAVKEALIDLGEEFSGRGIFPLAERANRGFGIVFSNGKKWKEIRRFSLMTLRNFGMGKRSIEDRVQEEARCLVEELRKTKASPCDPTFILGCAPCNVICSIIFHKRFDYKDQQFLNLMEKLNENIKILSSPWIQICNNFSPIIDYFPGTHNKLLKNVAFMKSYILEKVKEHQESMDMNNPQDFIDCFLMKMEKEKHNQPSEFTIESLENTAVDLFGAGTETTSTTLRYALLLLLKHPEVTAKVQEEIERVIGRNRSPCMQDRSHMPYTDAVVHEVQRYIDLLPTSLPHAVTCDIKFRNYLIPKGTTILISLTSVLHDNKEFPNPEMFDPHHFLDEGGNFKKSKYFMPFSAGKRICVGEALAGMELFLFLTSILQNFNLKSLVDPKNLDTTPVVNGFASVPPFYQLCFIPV
Method: The inhibitory effects of colonic flavonoid metabolites were examined in vitro, applying CypExpress^TM Cytochrome P450 human kits.
Inhibition of CYP2C9 enzyme was examined based on CYP2C9-catalyzed 4′-hydroxydiclofenac formation in the presence of microbial metabolites, using the previously reported method with some modifications. […] The incubations were started with the addition of the enzyme. After 120 min incubation at 700 rpm and 30 °C in a thermomixer (Eppendorf, Hamburg, Germany), the reaction was stopped with the addition of 100 μL of ice-cold methanol. After centrifugation (10 min, 14,000 g, room temperature), the concentrations of diclofenac and 4′-hydroxydiclofenac were quantified with HPLC (see in 2.5).
The metabolite formation (% of control) was depicted vs. the concentrations of inhibitors in a decimal logarithmic scale, then IC50 values were determined employing the GraphPad Prism 8 software (San Diego, CA, USA).
Diclofenac and 4′-hydroxydiclofenac (CYP2C9 assay) were quantified by HPLC-UV as it was reported previously. […] The separation was carried out using a guard column (Phenomenex Security Guard C8, 4.0 × 3.0 mm) linked to an analytical column (Agilent Eclipse C8, 150 × 4.6 mm, 5 μm) at room temperature. […] Diclofenac and 4′-hydroxydiclofenac were detected at 275 nm.

[10] = read-out: LogK (binding constant of albumin-ligand complex) (converted)

For `COc1ccc(C(=O)O)c(O)c1` [2H4MBA, 2-hydroxy-4-methoxybenzoic acid], the “logK of 2H4MBA-HSA complex” value (HSA; quenching study) is given as 3.2, the Cmax [1] is given as 7.7 µM and the inhibition at 20 μM (CYP2C19 [2]) is given as less than 30%. For the same compound, the Kd [3, 10] was 7.24 µM and the “Concentration of naproxen in the filtrate” value (HSA Site II (naproxen)) was “statistically significant (p < 0.05) but weak elevation”.

For `O=C(O)/C=C/c1cccc(O)c1` [3CA, 3-coumaric acid], the “Concentration in the circulation” value [4] is listed as “low nanomolar concentrations”, the “logK of 3CA-bovine serum albumin complex” value (bovine serum albumin) is listed as 4.1 and the “Effect on HSA fluorescence signal at 340 nm” value (“Effect … at 340 nm” for short) [3] is listed as “significant decrease”. The Kd [3, 10] was 72.4 µM and the “LogKSV (Stern-Volmer quenching constant)” value [3] was 4.13 ± 0.02.

For `COc1cc(CC(=O)O)ccc1O` [3M4HPAA, 3-methoxy-4-hydroxyphenylacetic acid], the “logK toward bovine serum albumin” value (bovine serum albumin) is listed as 3.8.

In the case of `O=C(O)/C=C/c1ccc(O)cc1` [4-coumaric acid], the “Effect on CYP3A4 enzyme” value (CYP3A4 [5]) is given as “did not influence”.

In the case of `COc1cc(C(=O)O)ccc1O` [4-hydroxy-3-methoxy-benzoic acid], the Cmax ([4]; healthy human volunteers, orally administered) is given as 5.7 µM.

In the case of `O=C(O)c1ccc(O)cc1` [4HBA, 4-hydroxybenzoic acid], the “logK of complex with HSA” value (HSA) is listed as “no interaction”, the “Inhibition of CYP2C19” value (CYP2C19 [6]) is listed as “did not inhibit” and the “Effect on CYP3A4 enzyme” value (CYP3A4 [5]) is listed as “did not influence”. For the same compound, the “Inhibition of CYP2C9” value (CYP2C9 [7]) was “did not inhibit”.

For `CC(=O)c1ccc(O)cc1O` [24DHAP, 2,4-dihydroxyacetophenone], the inhibition at 20 μM (CYP3A4 [8]) was less than 30%, the “Effect … at 340 nm” value [3] was “significant decrease” and the Kd [3, 10] was 27.5 µM. The “LogKSV (Stern-Volmer quenching constant)” value [3] was 4.39 ± 0.06.

In the case of `O=C(O)c1ccc(O)cc1O` [24DHBA, 2,4-dihydroxybenzoic acid], the “logK of complex with HSA” value (HSA) is listed as 3.2.

For `O=C(O)c1ccc(O)c(O)c1` [34DHBA, 3,4-dihydroxybenzoic acid], the “logK of complex with HSA” value (HSA) is listed as 3.1 and the inhibition at 20 μM (CYP2C19 [2]) is listed as less than 30%.

In the case of `O=C(O)CCc1ccc(O)cc1` [34HPPA, 3-(4-hydroxyphenyl)propionic acid], the “Inhibition of CYP2C19” value (CYP2C19 [6]) is given as “did not inhibit”, the “Effect on CYP3A4 enzyme” value (CYP3A4 [5]) is given as “did not influence” and the “Inhibition of CYP2C9” value (CYP2C9 [7]) is given as “did not inhibit”.

In the case of `CC(C(=O)c1ccc(O)cc1O)c1ccc(O)cc1` (stereo not shown) [DESMA, 1-(2,4-dihydroxyphenyl)-2-(4-hydroxyphenyl)-1-propanone], the “Concentration of warfarin in the filtrate” value (HSA Site I (warfarin)) is reported as “significantly increased”, the IC50 (CYP2C9 [9]) is reported as 6.6 µM and the “α (IC50 of the inhibitor divided by the IC50 of the positive control)” value (CYP2C9 [9]; human, 120 min, pH 7.5) is reported as 5.00. For the same compound, the inhibition at 20 μM (CYP2C19 [2]) was less than 30%, the Plasma concentrations ([4]; after dietary intake or high consumption of soy products, low nanomolar upward) was no more than 0.5 µM and the Peak plasma concentration ([4]; after ingestion of 60 g baked soybean powder) was 300−500 nM. The inhibition at 20 μM (CYP3A4 [8]) was less than 30%, the “Effect … at 340 nm” value [3] was “significant decrease” and the Kd [3, 10] was 8.32 µM. The “LogKSV (Stern-Volmer quenching constant)” value [3] was 4.99 ± 0.01.

For `O=C(O)CNC(=O)c1ccccc1` [HIPA, hippuric acid], the “logK of complex with HSA” value (HSA) is given as 3.8, the inhibition at 20 μM (CYP2C19 [2]) is given as less than 30% and the “Inhibition of CYP3A4-catalyzed testosterone hydroxylation” value (CYP3A4 [5]; 1-100 μM range) is given as “did not show relevant inhibition”. For the same compound, the “Inhibition of CYP3A4-catalyzed testosterone hydroxylation” value (CYP3A4 [5]) was “considerable inhibition only above 50 μM concentrations” and the “Inhibition of CYP2C9” value (CYP2C9 [7]) was “inhibited only at very high concentrations (e.g., 100 μM)”.

For `Oc1cc(O)cc(O)c1` [PHLO, phloroglucinol], the Peak plasma concentration ([4]; healthy human volunteers, oral 160 mg PHLO) is given as “approximately 5 μM” and the inhibition at 20 μM (CYP3A4 [8]) is given as roughly 40%.

In the case of `Oc1cccc(O)c1O` [PYR, pyrogallol], the “logK of PYR-HSA complex” value (HSA) is listed as 4.5, the “Concentration of warfarin in the filtrate” value (HSA Site I (warfarin)) is listed as “significantly increased” and the Peak plasma concentration ([4]; healthy humans, black tea extract 2650 mg, plasma not treated with sulfatase) is listed as “approximately 7 μM”. The “Effect … at 340 nm” value [3] was “significant decrease”, the Kd ([3]; LogK (binding constant of albumin-ligand complex)) was 20.9 µM and the “LogKSV (Stern-Volmer quenching constant)” value [3] was 4.64 ± 0.03.

`Oc1cccc(O)c1` [RES, resorcinol] gave an inhibition at 20 μM (CYP3A4 [8]) of roughly 65%.

For `O=c1c(-c2ccc(O)cc2)coc2cc(O)ccc12` [daidzein], the “Inhibition of CYP2C9-catalyzed hydroxylation of diclofenac” value (CYP2C9 [7]) is listed as “inhibits”.
